Test results taken from PubChem BioAssay (NCI).
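1) Cells in 96-well plates. 2) Compound, 48 h, 5 concentrations. 3) Linear interpolation between surrounding doses. 4) Unreached endpoint = highest concentration. At the TGI there is no net growth.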

Tests used:
Test in all cases: DTP human tumour cell line panel, 48 h
[1] = tested on: OVCAR-4 ovarian
[2] = tested on: SF-539 CNS
[3] = tested on: COLO 205 colon
[4] = tested on: OVCAR-8 ovarian
[5] = tested on: SK-MEL-5 melanoma
[6] = tested on: SK-MEL-28 melanoma
[7] = tested on: ACHN renal
[8] = tested on: SNB-75 CNS
[9] = tested on: SNB-78 CNS
[10] = tested on: UACC-62 melanoma
[11] = tested on: SF-295 CNS
[12] = tested on: TK-10 renal
[13] = tested on: RPMI-8226 leukemia
[14] = tested on: OVCAR-5 ovarian
[15] = tested on: 786-0 renal
[16] = tested on: CCRF-CEM leukemia
[17] = tested on: SNB-19 CNS
[18] = tested on: OVCAR-3 ovarian
[19] = tested on: LOX IMVI melanoma
[20] = tested on: NCI-H226 lung
[21] = tested on: A549 NSCLC
[22] = tested on: NCI-H23 lung
[23] = tested on: DMS 273 small cell lung
[24] = tested on: M19-MEL melanoma
[25] = tested on: U251 CNS
[26] = tested on: RXF 393 renal
[27] = tested on: M14 melanoma
[28] = tested on: RXF-631 renal
[29] = tested on: DMS 114 small cell lung
[30] = tested on: SW-620 colon
[31] = tested on: UO-31 renal
[32] = tested on: K-562 leukemia
[33] = tested on: KM12 colon
[34] = tested on: SF-268 CNS
[35] = tested on: SR leukemia
[36] = tested on: IGROV1 ovarian
[37] = tested on: SK-OV-3 ovarian
[38] = tested on: DLD-1 colon
[39] = tested on: MOLT-4 leukemia
[40] = tested on: HOP-18 NSCLC
[41] = tested on: HT29 colon
[42] = tested on: EKVX NSCLC
[43] = tested on: HL-60(TB) leukemia
[44] = tested on: UACC-257 melanoma
[45] = tested on: SK-MEL-2 melanoma
[46] = tested on: HCT-116 colon
[47] = tested on: MALME-3M melanoma
[48] = tested on: HCC-2998 colon
[49] = tested on: NCI-H460 lung
[50] = tested on: HOP-62 NSCLC
[51] = tested on: NCI-H522 lung
[52] = tested on: KM20L2 colon
[53] = tested on: LXFL 529 NSCLC
[54] = tested on: HOP-92 NSCLC
[55] = tested on: A498 renal
[56] = tested on: HCT-15 colon
[57] = tested on: CAKI-1 renal
[58] = tested on: SN12C renal

SMILES: O=C1C(c2ccccc2)=[N+]([O-])c2cc([N+](=O)[O-])c(/C(Cl)=C/c3ccccc3)cc21
- TGI [1]: 30.7 µM
- TGI [2]: 54.8 µM
- TGI [3]: 31 µM
- TGI [4]: 34.2 µM
- TGI [5]: 44.4 µM
- TGI [6]: 61 µM
- TGI [7]: 94.4 µM
- TGI [8]: 62.8 µM
- TGI [9]: 96.9 µM
- TGI [10]: 83.4 µM
- TGI [11]: > 100 µM
- TGI [12]: 82.3 µM
- TGI [13]: 42.5 µM
- TGI [14]: 59.1 µM
- TGI [15]: 82.9 µM
- TGI [16]: 40.3 µM
- TGI [17]: > 100 µM
- TGI [18]: 27 µM
- TGI [19]: 26.6 µM
- TGI [20]: > 100 µM
- TGI [21]: > 100 µM
- TGI [22]: 60.1 µM
- TGI [23]: 37.2 µM
- TGI [24]: 28.9 µM
- TGI [25]: 39.7 µM
- TGI [26]: 51.6 µM
- TGI [27]: 40.9 µM
- TGI [28]: 21.4 µM
- TGI [29]: 22.9 µM
- TGI [30]: 31.1 µM
- TGI [31]: > 100 µM
- TGI [32]: 37.7 µM
- TGI [33]: 59.8 µM
- TGI [34]: > 100 µM
- TGI [35]: 53 µM
- TGI [36]: 57.5 µM
- TGI [37]: > 100 µM
- TGI [38]: 45 µM
- TGI [39]: 49.2 µM
- TGI [40]: 75.5 µM
- TGI [41]: 58.2 µM
- TGI [42]: 78.9 µM
- TGI [43]: 18.4 µM

SMILES: C/C(CC(=O)Nc1ccc(C)c(C)c1)=N\NC(N)=S
- TGI [2]: > 100 µM
- TGI [3]: > 100 µM
- TGI [4]: > 100 µM
- TGI [44]: > 100 µM
- TGI [5]: > 100 µM
- TGI [6]: > 100 µM
- TGI [7]: > 100 µM
- TGI [8]: > 100 µM
- TGI [9]: > 100 µM
- TGI [45]: > 100 µM
- TGI [46]: > 100 µM
- TGI [10]: > 100 µM
- TGI [11]: > 100 µM
- TGI [12]: > 100 µM
- TGI [13]: > 100 µM
- TGI [14]: > 100 µM
- TGI [15]: > 100 µM
- TGI [16]: > 100 µM
- TGI [47]: > 100 µM
- TGI [48]: > 100 µM
- TGI [18]: > 100 µM
- TGI [19]: > 100 µM
- TGI [20]: > 100 µM
- TGI [21]: > 100 µM
- TGI [49]: > 100 µM
- TGI [22]: > 100 µM
- TGI [50]: > 100 µM
- TGI [23]: > 100 µM
- TGI [51]: > 100 µM
- TGI [52]: > 100 µM
- TGI [25]: > 100 µM
- TGI [26]: > 100 µM
- TGI [53]: > 100 µM
- TGI [27]: > 100 µM
- TGI [28]: > 100 µM
- TGI [29]: > 100 µM
- TGI [30]: > 100 µM
- TGI [31]: > 100 µM
- TGI [32]: > 100 µM
- TGI [33]: > 100 µM
- TGI [34]: > 100 µM
- TGI [36]: > 100 µM
- TGI [37]: > 100 µM
- TGI [38]: > 100 µM
- TGI [39]: > 100 µM
- TGI [41]: > 100 µM
- TGI [42]: > 100 µM
- TGI [43]: > 100 µM
- TGI [54]: > 100 µM

SMILES: O=C(NC1C2CC3CC(C2)CC1C3)c1ccncn1 (stereo not drawn)
- TGI [1]: > 100 µM
- TGI [2]: > 100 µM
- TGI [3]: > 100 µM
- TGI [4]: > 100 µM
- TGI [44]: > 100 µM
- TGI [5]: > 100 µM
- TGI [6]: > 100 µM
- TGI [7]: > 100 µM
- TGI [8]: > 100 µM
- TGI [9]: > 100 µM
- TGI [45]: > 100 µM
- TGI [46]: > 100 µM
- TGI [10]: > 100 µM
- TGI [11]: > 100 µM
- TGI [14]: > 100 µM
- TGI [15]: > 100 µM
- TGI [16]: > 100 µM
- TGI [47]: > 100 µM
- TGI [17]: > 100 µM
- TGI [48]: > 100 µM
- TGI [18]: > 100 µM
- TGI [55]: > 100 µM
- TGI [20]: > 100 µM
- TGI [21]: > 100 µM
- TGI [49]: > 100 µM
- TGI [22]: > 100 µM
- TGI [50]: > 100 µM
- TGI [23]: > 100 µM
- TGI [56]: > 100 µM
- TGI [24]: > 100 µM
- TGI [51]: > 100 µM
- TGI [52]: > 100 µM
- TGI [25]: > 100 µM
- TGI [53]: > 100 µM
- TGI [27]: > 100 µM
- TGI [28]: > 100 µM
- TGI [29]: > 100 µM
- TGI [30]: > 100 µM
- TGI [31]: > 100 µM
- TGI [32]: > 100 µM
- TGI [33]: > 100 µM
- TGI [34]: > 100 µM
- TGI [57]: > 100 µM
- TGI [58]: > 100 µM
- TGI [36]: > 100 µM
- TGI [38]: > 100 µM
- TGI [41]: > 100 µM
- TGI [42]: > 100 µM
- TGI [43]: > 100 µM
- TGI [54]: > 100 µM

SMILES: O=C1OC(CC(=O)c2ccccc2Cl)C(Cl)=C1Cl (stereo not drawn)
- TGI [1]: > 100 µM
- TGI [2]: > 100 µM
- TGI [3]: > 100 µM
- TGI [4]: > 100 µM
- TGI [44]: > 100 µM
- TGI [5]: > 100 µM
- TGI [6]: > 100 µM
- TGI [7]: > 100 µM
- TGI [9]: > 100 µM
- TGI [45]: > 100 µM
- TGI [46]: > 100 µM
- TGI [10]: > 100 µM
- TGI [11]: > 100 µM
- TGI [12]: > 100 µM
- TGI [13]: > 100 µM
- TGI [14]: > 100 µM
- TGI [15]: > 100 µM
- TGI [16]: > 100 µM
- TGI [47]: > 100 µM
- TGI [17]: > 100 µM
- TGI [48]: > 100 µM
- TGI [18]: > 100 µM
- TGI [19]: > 100 µM
- TGI [20]: > 100 µM
- TGI [21]: > 100 µM
- TGI [49]: > 100 µM
- TGI [22]: > 100 µM
- TGI [50]: > 100 µM
- TGI [56]: > 100 µM
- TGI [24]: > 100 µM
- TGI [51]: > 100 µM
- TGI [25]: > 100 µM
- TGI [26]: > 100 µM
- TGI [53]: > 100 µM
- TGI [27]: > 100 µM
- TGI [28]: > 100 µM
- TGI [29]: > 100 µM
- TGI [30]: > 100 µM
- TGI [31]: > 100 µM
- TGI [32]: > 100 µM
- TGI [33]: > 100 µM
- TGI [34]: > 100 µM
- TGI [57]: > 100 µM
- TGI [35]: > 100 µM
- TGI [58]: > 100 µM
- TGI [36]: > 100 µM
- TGI [37]: > 100 µM
- TGI [38]: > 100 µM
- TGI [39]: > 100 µM
- TGI [40]: > 100 µM
- TGI [41]: > 100 µM
- TGI [42]: > 100 µM
- TGI [43]: > 100 µM
- TGI [54]: > 100 µM

SMILES: COc1cccc(CC(C)N)c1 (stereo not drawn)
- TGI [1]: > 100 µM
- TGI [2]: > 100 µM
- TGI [3]: > 100 µM
- TGI [4]: > 100 µM
- TGI [44]: > 100 µM
- TGI [5]: > 100 µM
- TGI [6]: > 100 µM
- TGI [7]: > 100 µM
- TGI [8]: > 100 µM
- TGI [9]: > 100 µM
- TGI [45]: > 100 µM
- TGI [46]: > 100 µM
- TGI [10]: > 100 µM
- TGI [11]: > 100 µM
- TGI [12]: > 100 µM
- TGI [13]: > 100 µM
- TGI [14]: > 100 µM
- TGI [15]: > 100 µM
- TGI [16]: > 100 µM
- TGI [47]: > 100 µM
- TGI [17]: > 100 µM
- TGI [48]: > 100 µM
- TGI [18]: > 100 µM
- TGI [19]: > 100 µM
- TGI [55]: > 100 µM
- TGI [20]: > 100 µM
- TGI [21]: > 100 µM
- TGI [49]: > 100 µM
- TGI [22]: > 100 µM
- TGI [50]: > 100 µM
- TGI [23]: > 100 µM
- TGI [56]: > 100 µM
- TGI [51]: > 100 µM
- TGI [52]: > 100 µM
- TGI [25]: > 100 µM
- TGI [26]: > 100 µM
- TGI [53]: > 100 µM
- TGI [27]: > 100 µM
- TGI [28]: > 100 µM
- TGI [29]: > 100 µM
- TGI [30]: > 100 µM
- TGI [31]: > 100 µM
- TGI [32]: > 100 µM
- TGI [33]: > 100 µM
- TGI [34]: > 100 µM
- TGI [57]: > 100 µM
- TGI [35]: > 100 µM
- TGI [58]: > 100 µM
- TGI [36]: > 100 µM
- TGI [37]: > 100 µM
- TGI [38]: > 100 µM
- TGI [39]: > 100 µM
- TGI [40]: > 100 µM
- TGI [41]: > 100 µM
- TGI [42]: > 100 µM
- TGI [43]: > 100 µM
- TGI [54]: > 100 µM
